# Data published in patent US20140303386A1, “COMPOSITIONS AND METHODS FOR ENHANCING LIPID PRODUCTION IN […] INDUCTION OF CELL CYCLE ARREST” (RUTGERS, THE STATE UNIVERSITY OF NEW JERSEY, priority 2011, published 2014).
# How the values were obtained:
# Type in all cases: cell-based
# [1] = test system: marine diatom Phaeodactylum tricornutum; test: Cell cycle analysis (propidium iodide DNA stain, flow cytometry); settings: higher dose of inhibitor
# Method: (§1) Cultures were grown in continuous light at approximately 70 μmol quanta m^−2s^−1, in nutrient-replete conditions (F/2 media). […] The CDK inhibitor was applied when cells were growing exponentially (cell concentration was between 250,000-700,000 cells/ml).
# [2] = test system: marine diatom Phaeodactylum tricornutum; test: Fatty acid content / synthesis per cell
# Method: as §1
# [3] = test system: marine diatom Phaeodactylum tricornutum; test: Protein synthesis in treated cells; settings: treated vs untreated cells
# Method: as §1
# [4] = test system: marine diatom Phaeodactylum tricornutum; test: Photosynthetic health (Fv/Fm, chlorophyll per cell, a*); settings: treated vs untreated cells
# Method: as §1
smiles,measurement,setting,value
"Nc1nc(OCC2CCCCC2)c2nc[nH]c2n1 [NU 2058, 6-(Cyclohexylmethoxy)-9H-purin-2-amine]",percentage of cells arrested in G1,[1],higher percentage of cells arrested in G1
same,increase in fatty acid synthesis compared to untreated cells,"[2]; 7 μM, over a period of one day",80%
same,fatty acid content per cell,[2]; higher dose of inhibitor,higher fatty acid content per cell
same,"protein synthesis, lower than in untreated cells",[3],about 18%
same,"photosynthetic capacity (Fv/Fm, chlorophyll per cell, a*)",[4],no appreciable differences
